ChEMBL document CHEMBL4825755 (J Med Chem, 2021)

Key:
in vitro = conditions: human, pooled liver microsomes
Description: Intrinsic clearance in pooled human liver microsomes at 0.5 uM measured up to 45 mins in presence of NADPH by LC-MS/MS analysis

[1] = Intrinsic clearance in Wistar Han rat liver microsomes at 0.5 uM measured up to 45 mins in presence of NADPH by LC-MS/MS analysis; type: ADME, Microsome; conditions: read-out: CLH
[2] = target: PI3-kinase p110-delta/p85-alpha (Homo sapiens, UniProt O00329); experiment: Inhibition of recombinant human N-terminal His6-tagged full length P110delta/full length untagged human p85alpha expressed in baculovirus infected Sf21 insect cells using PIP2 as substrate preincubated for 15 mins followed by substrate addition and measured after 60 mins by HTRF assay
PI3K p110 beta/p85 alpha = PI3K p110 beta/p85 alpha (Homo sapiens, UniProt P42338); experiment: Inhibition of recombinant human N-terminal His6-tagged full length P110beta/full length untagged human p85alpha expressed in baculovirus infected Sf21 insect cells using PIP2 as substrate preincubated for 15 mins followed by substrate addition and measured after 60 mins by HTRF assay
[3] = target: Phosphatidylinositol 4,5-bisphosphate 3-kinase catalytic subunit gamma isoform (Homo sapiens, UniProt P48736); experiment: Inhibition of recombinant human N-terminal His6-tagged full length P120gamma expressed in baculovirus infected Sf21 insect cells using PIP2 as substrate preincubated for 15 mins followed by substrate addition and measured after 60 mins by HTRF assay
[4] = Lipophilicity, log D of compound by chromatographic method; type: physicochemical
[5] = target: PI3-kinase p110-alpha/p85-alpha (Homo sapiens, UniProt P42336); experiment: Inhibition of recombinant human N-terminal His6-tagged full length P110alpha/full length untagged human p85alpha expressed in baculovirus infected Sf21 insect cells using PIP2 as substrate preincubated for 15 mins followed by substrate addition and measured after 60 mins by HTRF assay
[6] = target: T1, Phosphatidylinositol 4,5-bisphosphate 3-kinase catalytic subunit delta isoform (Homo sapiens, UniProt O00329); experiment: Inhibition of PI3Kdelta in human whole blood assessed as reduction in cytostim-stimulated IFNgamma production preincubated for 1 hr followed by cytostim stimulation and measured after 20 hrs by electrochemiluminescence assay
T1 sequence (O00329 whole entry): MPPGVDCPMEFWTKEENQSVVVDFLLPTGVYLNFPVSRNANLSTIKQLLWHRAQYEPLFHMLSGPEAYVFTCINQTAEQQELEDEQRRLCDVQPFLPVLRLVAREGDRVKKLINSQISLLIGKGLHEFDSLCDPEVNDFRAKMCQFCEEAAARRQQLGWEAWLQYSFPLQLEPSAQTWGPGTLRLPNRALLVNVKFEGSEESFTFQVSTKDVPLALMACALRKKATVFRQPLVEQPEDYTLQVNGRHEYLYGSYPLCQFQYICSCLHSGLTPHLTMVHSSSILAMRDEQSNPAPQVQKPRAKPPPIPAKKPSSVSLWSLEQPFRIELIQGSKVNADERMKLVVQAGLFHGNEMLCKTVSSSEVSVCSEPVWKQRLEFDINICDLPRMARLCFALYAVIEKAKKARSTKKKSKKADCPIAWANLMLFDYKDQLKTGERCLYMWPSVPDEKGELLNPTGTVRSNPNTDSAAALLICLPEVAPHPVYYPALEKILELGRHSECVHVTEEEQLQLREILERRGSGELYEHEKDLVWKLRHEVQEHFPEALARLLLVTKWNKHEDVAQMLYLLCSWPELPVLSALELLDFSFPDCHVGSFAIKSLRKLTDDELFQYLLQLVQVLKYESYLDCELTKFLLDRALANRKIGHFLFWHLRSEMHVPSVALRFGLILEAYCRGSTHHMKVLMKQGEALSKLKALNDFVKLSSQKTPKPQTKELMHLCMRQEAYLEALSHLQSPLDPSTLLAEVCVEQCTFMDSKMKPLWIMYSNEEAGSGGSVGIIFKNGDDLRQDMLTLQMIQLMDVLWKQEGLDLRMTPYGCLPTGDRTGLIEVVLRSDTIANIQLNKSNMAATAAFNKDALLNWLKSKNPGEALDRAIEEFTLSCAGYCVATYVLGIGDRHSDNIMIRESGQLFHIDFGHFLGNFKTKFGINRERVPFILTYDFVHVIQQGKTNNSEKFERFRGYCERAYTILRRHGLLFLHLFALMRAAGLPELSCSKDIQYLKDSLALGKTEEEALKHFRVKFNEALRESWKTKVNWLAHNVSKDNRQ

Chain of Phosphatidylinositol 4,5-bisphosphate 3-kinase catalytic subunit gamma isoform (P48736 whole entry, canonical isoform): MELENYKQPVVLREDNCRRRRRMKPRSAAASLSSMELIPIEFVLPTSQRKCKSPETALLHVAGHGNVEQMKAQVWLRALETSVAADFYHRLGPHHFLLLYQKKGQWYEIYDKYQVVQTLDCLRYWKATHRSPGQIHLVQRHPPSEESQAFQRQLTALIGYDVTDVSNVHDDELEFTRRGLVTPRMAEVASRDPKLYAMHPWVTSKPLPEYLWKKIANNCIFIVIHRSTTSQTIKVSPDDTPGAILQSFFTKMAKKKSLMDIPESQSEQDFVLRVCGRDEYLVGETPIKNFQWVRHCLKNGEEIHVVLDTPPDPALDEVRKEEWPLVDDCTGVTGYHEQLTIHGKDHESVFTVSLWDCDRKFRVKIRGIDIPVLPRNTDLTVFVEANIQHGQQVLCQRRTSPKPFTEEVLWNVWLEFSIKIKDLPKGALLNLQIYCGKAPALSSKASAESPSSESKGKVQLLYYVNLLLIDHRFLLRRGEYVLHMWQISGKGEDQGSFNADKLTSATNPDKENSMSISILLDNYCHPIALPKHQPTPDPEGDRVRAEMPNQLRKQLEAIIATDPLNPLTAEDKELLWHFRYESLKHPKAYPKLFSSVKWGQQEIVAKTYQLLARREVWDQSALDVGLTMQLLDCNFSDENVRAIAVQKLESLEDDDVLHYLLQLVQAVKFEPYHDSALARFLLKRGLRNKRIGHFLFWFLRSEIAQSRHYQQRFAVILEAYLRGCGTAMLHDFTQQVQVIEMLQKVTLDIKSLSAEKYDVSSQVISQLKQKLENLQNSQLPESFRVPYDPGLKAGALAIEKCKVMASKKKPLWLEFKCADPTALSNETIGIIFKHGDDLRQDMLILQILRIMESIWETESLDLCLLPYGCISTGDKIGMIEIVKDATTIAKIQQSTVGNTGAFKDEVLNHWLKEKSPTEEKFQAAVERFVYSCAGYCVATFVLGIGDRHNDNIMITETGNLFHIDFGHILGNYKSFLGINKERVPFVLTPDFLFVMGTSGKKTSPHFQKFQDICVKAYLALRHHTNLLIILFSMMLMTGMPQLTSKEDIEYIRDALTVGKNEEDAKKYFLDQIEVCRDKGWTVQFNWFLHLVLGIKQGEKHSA
Chain of PI3-kinase p110-delta/p85-alpha (P27986 whole entry, one chain of several): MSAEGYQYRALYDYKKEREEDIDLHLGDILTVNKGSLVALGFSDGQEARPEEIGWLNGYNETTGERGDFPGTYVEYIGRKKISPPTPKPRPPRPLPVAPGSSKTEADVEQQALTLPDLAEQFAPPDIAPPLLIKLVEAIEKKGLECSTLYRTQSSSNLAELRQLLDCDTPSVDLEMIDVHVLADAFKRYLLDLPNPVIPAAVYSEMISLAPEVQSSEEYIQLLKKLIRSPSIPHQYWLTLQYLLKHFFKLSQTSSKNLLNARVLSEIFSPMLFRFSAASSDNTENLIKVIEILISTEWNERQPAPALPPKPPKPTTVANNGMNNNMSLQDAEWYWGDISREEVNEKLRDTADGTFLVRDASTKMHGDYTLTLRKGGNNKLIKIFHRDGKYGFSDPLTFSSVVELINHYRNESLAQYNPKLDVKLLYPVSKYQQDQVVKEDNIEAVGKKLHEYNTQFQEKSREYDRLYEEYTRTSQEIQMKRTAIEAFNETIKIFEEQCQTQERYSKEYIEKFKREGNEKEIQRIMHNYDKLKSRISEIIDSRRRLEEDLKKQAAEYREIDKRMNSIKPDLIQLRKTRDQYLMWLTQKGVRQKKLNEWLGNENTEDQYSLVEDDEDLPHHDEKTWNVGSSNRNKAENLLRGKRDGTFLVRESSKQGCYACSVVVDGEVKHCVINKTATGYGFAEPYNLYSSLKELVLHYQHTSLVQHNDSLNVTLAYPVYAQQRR
Chain of PI3K p110 beta/p85 alpha (P27986 whole entry, canonical isoform): as the sequence (P27986 whole entry, one chain of several) above
Chain of PI3K p110 beta/p85 alpha (P42338 whole entry, canonical isoform): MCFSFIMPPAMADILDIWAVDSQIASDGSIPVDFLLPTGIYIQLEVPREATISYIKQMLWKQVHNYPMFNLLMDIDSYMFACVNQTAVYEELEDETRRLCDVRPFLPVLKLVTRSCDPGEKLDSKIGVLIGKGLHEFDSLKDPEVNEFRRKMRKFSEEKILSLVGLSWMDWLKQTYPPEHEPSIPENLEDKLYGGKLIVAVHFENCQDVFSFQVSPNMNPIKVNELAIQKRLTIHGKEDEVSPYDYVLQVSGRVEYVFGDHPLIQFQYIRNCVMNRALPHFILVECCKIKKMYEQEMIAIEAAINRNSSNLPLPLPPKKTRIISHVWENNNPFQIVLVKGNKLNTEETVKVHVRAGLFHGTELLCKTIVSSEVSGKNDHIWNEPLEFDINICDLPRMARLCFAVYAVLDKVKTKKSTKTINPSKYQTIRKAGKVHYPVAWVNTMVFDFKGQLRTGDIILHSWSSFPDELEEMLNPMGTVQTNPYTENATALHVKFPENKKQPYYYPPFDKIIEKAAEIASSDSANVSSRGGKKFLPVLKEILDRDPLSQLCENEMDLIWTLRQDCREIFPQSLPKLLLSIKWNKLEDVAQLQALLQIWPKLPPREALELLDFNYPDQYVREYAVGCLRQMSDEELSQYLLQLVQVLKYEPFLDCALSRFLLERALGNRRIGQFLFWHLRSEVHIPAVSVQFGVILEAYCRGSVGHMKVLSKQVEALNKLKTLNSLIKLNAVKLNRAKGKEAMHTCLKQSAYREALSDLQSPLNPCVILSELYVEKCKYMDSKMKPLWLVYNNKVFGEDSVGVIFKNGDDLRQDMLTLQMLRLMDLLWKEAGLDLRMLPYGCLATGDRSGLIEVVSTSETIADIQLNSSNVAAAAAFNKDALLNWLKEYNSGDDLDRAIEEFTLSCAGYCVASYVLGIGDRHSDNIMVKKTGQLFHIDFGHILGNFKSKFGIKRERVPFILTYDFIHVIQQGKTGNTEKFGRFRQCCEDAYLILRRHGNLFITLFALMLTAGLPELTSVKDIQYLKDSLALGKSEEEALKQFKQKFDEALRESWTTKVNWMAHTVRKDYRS
Chain of PI3-kinase p110-alpha/p85-alpha (P27986 whole entry, canonical isoform): as the sequence (P27986 whole entry, one chain of several) above
Chain of PI3-kinase p110-alpha/p85-alpha (P42336 whole entry, canonical isoform): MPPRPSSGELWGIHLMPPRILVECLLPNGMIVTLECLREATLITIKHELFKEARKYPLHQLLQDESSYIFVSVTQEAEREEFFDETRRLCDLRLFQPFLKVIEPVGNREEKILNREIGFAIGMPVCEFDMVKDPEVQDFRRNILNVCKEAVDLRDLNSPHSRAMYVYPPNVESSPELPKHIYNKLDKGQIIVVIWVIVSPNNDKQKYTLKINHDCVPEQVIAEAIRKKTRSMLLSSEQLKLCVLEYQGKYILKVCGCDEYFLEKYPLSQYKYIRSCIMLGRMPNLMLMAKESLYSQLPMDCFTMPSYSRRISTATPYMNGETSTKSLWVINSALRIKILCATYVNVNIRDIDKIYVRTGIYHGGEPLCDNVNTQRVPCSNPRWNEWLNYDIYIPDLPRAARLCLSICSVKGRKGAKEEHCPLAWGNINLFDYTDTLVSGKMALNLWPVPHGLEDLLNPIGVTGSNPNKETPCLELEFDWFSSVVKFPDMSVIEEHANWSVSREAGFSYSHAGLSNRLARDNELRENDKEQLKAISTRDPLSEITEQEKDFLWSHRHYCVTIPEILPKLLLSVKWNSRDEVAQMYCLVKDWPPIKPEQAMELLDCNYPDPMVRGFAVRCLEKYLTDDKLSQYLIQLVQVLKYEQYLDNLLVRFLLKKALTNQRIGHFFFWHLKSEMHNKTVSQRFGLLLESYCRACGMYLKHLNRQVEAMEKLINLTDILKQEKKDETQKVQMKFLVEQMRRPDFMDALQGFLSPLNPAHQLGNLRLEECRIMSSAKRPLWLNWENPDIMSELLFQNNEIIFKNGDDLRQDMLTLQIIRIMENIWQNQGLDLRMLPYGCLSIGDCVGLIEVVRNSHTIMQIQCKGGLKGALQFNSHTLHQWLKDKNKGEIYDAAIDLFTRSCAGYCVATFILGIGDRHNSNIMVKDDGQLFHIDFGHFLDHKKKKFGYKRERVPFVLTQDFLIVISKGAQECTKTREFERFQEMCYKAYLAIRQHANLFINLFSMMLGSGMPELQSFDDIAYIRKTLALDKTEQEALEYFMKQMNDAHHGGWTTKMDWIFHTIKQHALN

SMILES | CLint scaled at 0.75 h, 0.5 µM (in vitro) | CLint scaled at 0.5 µM [1] | IC50 [2] | IC50 (PI3K p110 beta/p85 alpha) | IC50 [3] | chromatographic logD [4] | IC50 [5] | IC50 [6] | Ki [2]
COc1ncc(C2=CCOCC2)cc1S(=O)(=O)Nc1cncc(C#CCN2C[C@@H](C)O[C@@H](C)C2)c1 | 3.64 mL/min/kg | 5.59 mL/min/kg | 3.98 nM | 5010 nM | 5010 nM | 3.6 | 6310 nM | – | –
COc1ncc(N2CCOCC2)cc1S(=O)(=O)Nc1cncc(-c2ccc(CN3CCN(C(C)C)CC3)cc2F)c1 [listing 1 of 2 here] | – | – | – | – | – | – | – | 3.16 nM | –
COc1ncc(N2CCOCC2)cc1S(=O)(=O)Nc1ccnc(-c2ccc(CN3C[C@@H](C)O[C@@H](C)C3)cc2F)c1 | 0.87 mL/min/kg | 0.59 mL/min/kg | 1 nM | 1580 nM | 251 nM | 3.9 | 1260 nM | 7.94 nM | 0.0316 nM
COc1ncc(N2CCOCC2)cc1S(=O)(=O)Nc1cncc(-c2ccc(CN3CCCC3)cc2)c1 [listing 1 of 2 here] | < 0.4 mL/min/kg | < 0.46 mL/min/kg | 20 nM | 2000 nM | – | 1.9 | 5010 nM | 79.4 nM | –
COc1ncc(C2=CCOCC2)cc1S(=O)(=O)Nc1cncc(C2=CCN(C)CC2)c1 | – | – | 316 nM | 5010 nM | 5010 nM | 1.5 | 20000 nM | – | –
COc1ncc(C2=CCOCC2)cc1S(=O)(=O)Nc1cncc(-c2cccc(CN3CCCC3)c2)c1 | 0.71 mL/min/kg | 1.1 mL/min/kg | 6.31 nM | 794 nM | 3980 nM | 2.4 | 5010 nM | 200 nM | –
COc1ncc(N2CCOCC2)cc1S(=O)(=O)Nc1ccnc(-c2ccc(CN3CCN(C(C)(C)C)CC3)cc2F)c1 | < 0.31 mL/min/kg | < 0.37 mL/min/kg | 0.794 nM | 3980 nM | 2000 nM | 1.9 | 794 nM | 2.51 nM | 0.0251 nM
COc1ncc(N2CCOCC2)cc1S(=O)(=O)Nc1ccnc(-c2ccc(CN3CCN(C(C)C)CC3)c(F)c2F)c1 [listing 1 of 2 here] | – | – | – | – | 2000 nM | – | – | – | –
COc1ncc(C2=CCOCC2)cc1S(=O)(=O)Nc1cncc(-c2ccc(CN3CCNCC3)cc2)c1 | 2.21 mL/min/kg | 3.18 mL/min/kg | 3.16 nM | 794 nM | 7940 nM | 3.3 | 3160 nM | 12.6 nM | 0.126 nM
COc1ncc(C2=CCOCC2)cc1S(=O)(=O)Nc1cncc(-c2ccc(CN3CCN(C)CC3)cc2)c1 | 1.64 mL/min/kg | 0.96 mL/min/kg | 3.16 nM | 501 nM | 3160 nM | 2.3 | 251 nM | 39.8 nM | –
COc1ncc(N2CCOCC2)cc1S(=O)(=O)Nc1ccnc(-c2ccc(CN3CCN(C(C)C)CC3)cc2)c1 | < 0.4 mL/min/kg | < 0.46 mL/min/kg | 1.26 nM | 10000 nM | 5010 nM | 1.4 | 2510 nM | 12.6 nM | 0.0398 nM
COc1ncc(N2CCOCC2)cc1S(=O)(=O)Nc1cncc(-c2ccc(CN3CCN(C(C)C)CC3)cc2F)c1 [listing 2 of 2 here] | 0.65 mL/min/kg | < 0.46 mL/min/kg | 1.26 nM | 3980 nM | 2510 nM | 2.6 | 501 nM | – | –
COc1ncc(N2CCOCC2)cc1S(=O)(=O)Nc1cncc(-c2ccc(CN3CCN(C(C)C)CC3)cc2)c1 | 0.71 mL/min/kg | < 0.46 mL/min/kg | 2.51 nM | 2510 nM | 7940 nM | 2.3 | 1260 nM | 20 nM | 0.0794 nM
COc1ncc(C2=CCOCC2)cc1S(=O)(=O)Nc1cncc(C2CC2CN(C)C)c1 (centres undefined) | – | – | 126 nM | 1260 nM | 7940 nM | 1.2 | 6310 nM | – | –
COc1ncc(N2CCOCC2)cc1S(=O)(=O)Nc1ccnc(-c2ccc(CN3CCN(C(C)(C)C)CC3)cc2)c1 [listing 1 of 2 here] | – | – | – | 6310 nM | 3980 nM | – | 1580 nM | – | –
COc1ncc(N2CCOCC2)cc1S(=O)(=O)Nc1ccnc(-c2ccc(CN3CCN(C(C)C)CC3)c(F)c2F)c1 [listing 2 of 2 here] | 0.47 mL/min/kg | < 0.46 mL/min/kg | 1.58 nM | 5010 nM | – | 2.2 | 1260 nM | 3.16 nM | 0.0631 nM
COc1ncc(N2CCOCC2)cc1S(=O)(=O)Nc1cncc(-c2ccc(CN3CCCC3)cc2)c1 [listing 2 of 2 here] | – | – | – | – | 10000 nM | – | – | – | –
COc1ncc(N2CCOCC2)cc1S(=O)(=O)Nc1ccnc(-c2ccc(CN3CCN(C(C)(C)C)CC3)cc2)c1 [listing 2 of 2 here] | < 0.4 mL/min/kg | < 0.46 mL/min/kg | 0.794 nM | – | – | 1.3 | – | 7.94 nM | 0.0251 nM
COc1ncc(C2=CCOCC2)cc1S(=O)(=O)Nc1ccccc1 | – | – | 200 nM | 2510 nM | 7940 nM | – | 3980 nM | 3980 nM | –
COc1ncc(C2=CCOCC2)cc1S(=O)(=O)Nc1cncc(-c2ccc(N3CCN(C(C)C)CC3)cc2)c1 | – | – | 3.16 nM | 316 nM | 7940 nM | 3.8 | 316 nM | 50.1 nM | –
COc1ncc(C2=CCOCC2)cc1S(=O)(=O)Nc1cncc(-c2ccc(CN3CCCCC3)s2)c1 | – | – | 2.51 nM | 100 nM | 1580 nM | 4.7 | 1580 nM | 31.6 nM | –
